Laboratory results published in paper PMC10992699, “Comparative structure activity and target exploration of 1,2-diphenylethynes in Haemonchus contortus and Caenorhabditis elegans” (International Journal for Parasitology: Drugs and Drug …, 2024).

How the values were obtained:
TRXR-1 = molecular target: T1, TRXR-1 (Caenorhabditis elegans, UniProt Q17745); assay: Thermal proteome profiling (TPP); format: binding; settings: compound 50 μM, C. elegans lysate, 37-67 °C
T1 construct: from tissue; host or cells: whole-worm lysate of C. elegans N2 (young adults / L4s)

[1] = system: adult females of Haemonchus contortus; assay: Motility of adult female H. contortus in vitro; format: cell-based; settings: 40 μM; 24 h of incubation; normalised to negative control
Description: Adult H. contortus were collected from the abomasa of sheep infected for 10 weeks, washed extensively with phosphate-buffered saline (PBS, pH 7.4) and subsequently in RPMI 1640 media supplemented with final concentrations of 2 mM L-glutamine, 100 IU/mL of penicillin, 100 μg/mL of streptomycin and 0.25 μg/mL of amphotericin B (Thermo Fisher Scientific, Scoresby, VIC, Australia; this supplemented RPMI was designated RPMI*). Female and male worms were collected and separated immediately prior to compound testing.
The activity of UMW-9729 and six derivatives (12, 14, 15, 16, 18 and 25) was assessed on adult female specimens of H. contortus in an established assay ([Taki et al., 2020]). The compound was added in triplicate to the wells of a 24-well plate (cat. no. 3524; Corning, USA) at a concentration of 40 μM in 500 μL of RPMI* (RPMI supplemented with final concentrations of 2 mM L-glutamine, 100 IU/mL of penicillin, 100 μg/mL of streptomycin and 0.25 μg/mL of amphotericin B; Thermo Fisher Scientific, Scoresby, VIC, Australia). Two positive-control compounds, monepantel and moxidectin, and a negative control containing 1 % (v/v) DMSO only, were included in triplicates on the same plate. Three adult females were added to each of the triplicate wells containing either the test compound or the controls and placed in a CO2 incubator (10 % (v/v) CO2, 40 °C, >90 % relative humidity) for 1 day. A video recording (30 s) of each well was taken at 3 h, 6 h, 12 h and 24 h during the total incubation period to assess the reduction in worm motility, which was scored as 3 (“good”), 2 (“low”), 1 (“very low”) or 0 (“no movement”; cf. [Taki et al., 2020]). For each test or control compound, the motility scores for each of the triplicate wells were calculated, normalised with reference to the negative control (100 % motility) and recorded as a percentage.

UNC-11 = molecular target: T2, UNC-11 (Caenorhabditis elegans, UniProt Q9XZI6); assay: Thermal proteome profiling (TPP); format: binding; settings: compound 50 μM, C. elegans lysate, 37-67 °C
T2 construct: from tissue; host or cells: whole-worm lysate of C. elegans N2 (young adults / L4s)

H. contortus xL3s = assay: H. contortus xL3 motility dose-response assay; format: cell-based, Haemonchus contortus
Description: Immediately prior to use in assays, H. contortus L3s were exsheathed via exposure to 0.15 % (v/v) sodium hypochlorite for 20 min at 38 °C ([Preston et al., 2015]), achieving an exsheathment rate of 90 %. The larvae were then immediately washed five times with 50 mL of sterile physiological saline (pH 7.0) by centrifugation at 2000×g (5 min) and resuspended (at a concentration of 300 xL3s per 50 μL) in sterile (autoclaved) lysogeny broth (LB; cf. [Bertani, 1951]; [Taki et al., 2021b]), supplemented with final concentrations of 100 IU/mL of penicillin, 100 μg/mL of streptomycin and 0.25 μg/mL of amphotericin B (Fungizone®, cat. No. 15240-062, Gibco, Thermo Fisher Scientific, Waltham, MA, USA); this supplemented LB was designated LB*.
The dose-response assay for H. contortus followed a well-established protocol ([Taki et al., 2021b]); it was employed to evaluate the potency of hit compounds against this nematode. Test compounds were assessed individually for an effect on the motility of xL3s (10-point, 2-fold serial dilution in LB*, 40 μM–[…]). […] A solution of LB* was used as a negative control. The test compounds and positive control compounds (monepantel and moxidectin) were arrayed in triplicate across individual flat-bottom 96-well microplates, with six wells on each plate containing the negative control. Added to each well were 300 xL3s of H. contortus in 50 μL of LB* to give a final volume of 100 μL. Plates were then placed in a CO2 incubator (10 % (v/v) CO2, 38 °C, >90 % humidity; Forma, model no. 311, Thermo Fisher Scientific, USA). […] Over a period of 15 min, disturbance of an infrared beam in individual wells was recorded as an ‘activity count’. Raw ‘activity counts’ for individual wells were normalised to the negative-controls. The compound concentrations were log10-transformed and fitted using a variable slope four-parameter equation, using the ordinary least squares fit model, employing Prism (v.9.1.0 GraphPad Software, San Diego, CA, USA). Larval development was established at 168 h of incubation with compound, as described previously ([Preston et al., 2015]). The phenotypes of larvae were examined using a microscope ([Preston et al., 2015]) and recorded.

T2 sequence (Q9XZI6 whole entry): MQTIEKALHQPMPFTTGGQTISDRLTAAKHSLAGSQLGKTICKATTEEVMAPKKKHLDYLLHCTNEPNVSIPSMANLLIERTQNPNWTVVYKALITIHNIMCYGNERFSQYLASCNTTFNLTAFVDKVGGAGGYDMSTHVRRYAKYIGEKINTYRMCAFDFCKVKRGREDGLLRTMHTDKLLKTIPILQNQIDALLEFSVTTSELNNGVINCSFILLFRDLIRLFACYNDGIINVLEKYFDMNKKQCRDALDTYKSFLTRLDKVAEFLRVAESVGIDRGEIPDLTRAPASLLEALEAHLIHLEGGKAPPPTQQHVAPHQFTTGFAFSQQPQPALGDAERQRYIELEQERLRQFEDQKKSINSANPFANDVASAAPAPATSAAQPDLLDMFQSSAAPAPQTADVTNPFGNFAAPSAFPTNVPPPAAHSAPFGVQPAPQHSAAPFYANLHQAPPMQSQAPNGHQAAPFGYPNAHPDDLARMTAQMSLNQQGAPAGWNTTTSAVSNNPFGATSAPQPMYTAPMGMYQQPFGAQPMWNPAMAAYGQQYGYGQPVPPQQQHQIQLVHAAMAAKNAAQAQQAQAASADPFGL
T1 sequence (Q17745 whole entry): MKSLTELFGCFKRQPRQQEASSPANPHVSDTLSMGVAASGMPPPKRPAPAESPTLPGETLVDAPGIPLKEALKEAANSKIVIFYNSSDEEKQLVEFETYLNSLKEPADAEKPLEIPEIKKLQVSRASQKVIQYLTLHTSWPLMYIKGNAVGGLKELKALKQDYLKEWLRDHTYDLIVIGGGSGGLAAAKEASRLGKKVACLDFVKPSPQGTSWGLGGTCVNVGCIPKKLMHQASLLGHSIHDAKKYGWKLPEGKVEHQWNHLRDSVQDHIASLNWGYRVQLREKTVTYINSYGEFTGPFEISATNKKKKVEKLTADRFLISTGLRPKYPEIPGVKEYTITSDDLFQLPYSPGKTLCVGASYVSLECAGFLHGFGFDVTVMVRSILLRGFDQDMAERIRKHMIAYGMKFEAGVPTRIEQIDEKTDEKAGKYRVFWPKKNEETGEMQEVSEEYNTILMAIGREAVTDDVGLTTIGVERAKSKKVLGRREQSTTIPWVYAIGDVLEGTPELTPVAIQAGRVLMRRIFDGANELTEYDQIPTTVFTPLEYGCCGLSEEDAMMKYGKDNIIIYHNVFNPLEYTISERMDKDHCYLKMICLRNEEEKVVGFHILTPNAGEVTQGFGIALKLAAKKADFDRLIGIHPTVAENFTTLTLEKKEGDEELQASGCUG

Structure (SMILES): C(#Cc1ccc(-c2ccn[nH]2)cc1)c1ccccc1 [UMW-9729]
- F-statistic (TRXR-1; NPARC): 20.2
- thermal stability of protein in the presence of compound (TRXR-1): stabilised
- reduction of worm motility, adult females of H. contortus [1]: did not
- F-statistic (UNC-11; NPARC): 23.0
- thermal stability of protein in the presence of compound (UNC-11): stabilised
- IC50 (H. contortus xL3s; Haemonchus contortus, 90 h, xL3s, 90 h incubation (table title), three independent assays in triplicate, read-out: Worm motility IC50 ± SD, H. contortus xL3s): 6.7 ± 0.4 µM
- fold more active than moxidectin, H. contortus larvae (H. contortus xL3s; ratio of xL3 motility IC50 to moxidectin): ~3 fold
